This data set deals with human healthy skin. As to conditions: in vivo.

Description: The study was designed as a single center, randomized, double-blind (investigator-masked) study with intraindividual comparison of treatments to evaluate the cutaneous tolerance of repeated applications of the medical skin care formulations applied under occlusion during 21 days and started with 25 healthy volunteers of either sex between 18 and 65 years old meeting specific inclusion/exclusion criteria.
The volunteers were subjected to an occlusive application of 50 μl of each test formulation on designated test fields on their mid back for 21 consecutive days. The occlusive dressings were removed after 23 hours, and the irritation was evaluated one hour later using a 6-point-score (irritation score):
A Cumulative Irritancy Index (C.I.I.) was calculated for each test preparation for each subject as follows:
C.I.I.=Sum of irritation scores in one individual/number of readings An ‘adjusted C.I.I.’ (C.I.I.*) was calculated by subtracting scores caused by sensitization reactions.
Furthermore, a Mean Cumulative Irritation Index (M.C.I.I.) was calculated for each product by averaging individual C.I.I.s across subjects as follows:
M.C.I.I.=Sum of irritation scores in all individuals/number of readings An ‘adjusted M.C.I.I.’ (M.C.I.I.*) was calculated by subtracting scores caused by sensitization reactions.

For the substance white soft paraffin, the “mean scores during the course of the study” value is on record as “no remarkable differences or tendencies”.

Values taken from patent US20040116531A1, “Water-free skin care formulations comprising micronized urea and method of manufacturing the same” (priority 2000, published 2004).
